Assay results reported in patent US12545639B2, “3-substituted phenylamidine compounds, preparation and use thereof” (PI INDUSTRIES LTD., priority 2019, dated 2026).

Legend:
Pyricularia oryzae = assay: microbe, parasite or virus in culture; format: cell-based; settings: 168 h, read-out: control compared to the untreated check (radial growth)
Botrytis cinerea = Botrytis cinerea (gray mold) in vitro test, radial growth on potato dextrose agar; format: cell-based; settings: 168 h, 300 ppm in potato dextrose agar, 22° C., 90% relative humidity, seven days, read-out: control compared to the untreated check (radial growth)
Alternaria solani = Alternaria solani (early blight of tomato/potato) in vitro test, radial growth on potato dextrose agar; format: cell-based; settings: 168 h, 300 ppm in potato dextrose agar, 25° C., 60% relative humidity, seven days, read-out: control compared to the untreated check (radial growth)
Rhizoctonia solani = Rhizoctonia solani (rice sheath blight/potato black scurf) in vitro test, radial growth on potato dextrose agar; format: cell-based; settings: 168 h, 300 ppm in potato dextrose agar, 25° C., 60% relative humidity, seven days, read-out: control compared to the untreated check (radial growth)
Phakopsora pachyrhizi = Phakopsora pachyrhizi test in soybean, preventive, in vivo on plants; settings: in Glycine max, read-out: Efficacy (% control), disease severity compared to the untreated check

CCN(C)C=Nc1cc(C#N)cc(Cc2ccc(F)cc2)c1C [Compound 310, N′-(5-cyano-3-(4-fluorobenzyl)-2-methylphenyl)-N-ethyl-N-methylformimidamide]
≥ 70%: inhibition of growth at 300 ppm (Pyricularia oryzae) | inhibition of growth at 300 ppm (Botrytis cinerea) | inhibition of growth at 300 ppm (Alternaria solani)

CCN(C)C=Nc1cc(F)cc(Cc2ccccc2OC(F)(F)F)c1C [Compound 170, N-ethyl-N′-(5-fluoro-2-methyl-3-(2-(trifluoromethoxy)benzyl)phenyl)-N-methylformimidamide]
≥ 70%: inhibition of growth at 300 ppm (Pyricularia oryzae) | inhibition of growth at 300 ppm (Rhizoctonia solani) | inhibition of growth at 300 ppm (Botrytis cinerea) | inhibition of growth at 300 ppm (Alternaria solani)

CCN(C)C=Nc1cc(Cl)cc(N(C)c2cccc(F)c2)c1C [Compound 179, N′-(5-chloro-3-((3-fluorophenyl)(methyl)amino)-2-methylphenyl)-N-ethyl-N-methylformimidamide]
≥ 70%: inhibition of growth at 300 ppm (Pyricularia oryzae) | inhibition of growth at 300 ppm (Botrytis cinerea) | inhibition of growth at 300 ppm (Alternaria solani) | pest or weed control at 500 ppm (Phakopsora pachyrhizi)

CCN(C)C=Nc1cc(C#N)cc(Cc2ccc(Cl)cc2)c1C [Compound 311, N′-(3-(4-chlorobenzyl)-5-cyano-2-methylphenyl)-N-ethyl-N-methylformimidamide]
≥ 70%: inhibition of growth at 300 ppm (Pyricularia oryzae) | inhibition of growth at 300 ppm (Rhizoctonia solani) | inhibition of growth at 300 ppm (Botrytis cinerea)

CCN(C)C=Nc1cc(F)cc(N(C)c2cc(F)cc(Cl)c2)c1C [Compound 106, N′-(3-((3-chloro-5-fluorophenyl)(methyl)amino)-5-fluoro-2-methylphenyl)-N-ethyl-N-methylformimidamide]
≥ 70%: inhibition of growth at 300 ppm (Botrytis cinerea) | inhibition of growth at 300 ppm (Alternaria solani)

CCN(C)C=Nc1cc(F)cc(N(C)c2cccc(F)c2)c1C [Compound 32, N-ethyl-N′-(5-fluoro-3-((3-fluorophenyl)(methyl)amino)-2-methylphenyl)-N-methylformimidamide]
≥ 70%: inhibition of growth at 300 ppm (Pyricularia oryzae) | inhibition of growth at 300 ppm (Botrytis cinerea) | inhibition of growth at 300 ppm (Alternaria solani) | pest or weed control at 500 ppm (Phakopsora pachyrhizi)

CCN(C)C=Nc1cc(F)cc(Nc2ccccc2)c1C [Compound 8, N-ethyl-N′-(5-fluoro-2-methyl-3-(phenylamino)phenyl)-N-methylformimidamide]
≥ 70%: inhibition of growth at 300 ppm (Pyricularia oryzae) | inhibition of growth at 300 ppm (Botrytis cinerea) | inhibition of growth at 300 ppm (Alternaria solani)

CCN(C)C=Nc1cc(C)cc(N(C)c2ccc(F)c(OC)c2)c1Cl [Compound 288, N′-(2-chloro-3-((4-fluoro-3-methoxyphenyl)(methyl)amino)-5-methylphenyl)-N-ethyl-N-methylformimidamide]
≥ 70%: inhibition of growth at 300 ppm (Pyricularia oryzae) | inhibition of growth at 300 ppm (Botrytis cinerea) | inhibition of growth at 300 ppm (Alternaria solani)

CCN(C)C=Nc1cc(F)cc(Cc2ccc(OC(F)(F)F)cc2)c1C [Compound 176, N-ethyl-N′-(5-fluoro-2-methyl-3-(4-(trifluoromethoxy)benzyl)phenyl)-N-methylformimidamide]
≥ 70%: inhibition of growth at 300 ppm (Pyricularia oryzae) | inhibition of growth at 300 ppm (Rhizoctonia solani) | inhibition of growth at 300 ppm (Botrytis cinerea) | inhibition of growth at 300 ppm (Alternaria solani)

CCN(C)C=Nc1cc(C)cc(N(C)c2ccc(F)c(F)c2)c1Cl [Compound 81, N′-(2-chloro-3-((3,4-difluorophenyl)(methyl)amino)-5-methylphenyl)-N-ethyl-N-methylformimidamide]
≥ 70%: inhibition of growth at 300 ppm (Botrytis cinerea) | inhibition of growth at 300 ppm (Alternaria solani) | pest or weed control at 500 ppm (Phakopsora pachyrhizi)

CCN(C)C=Nc1cc(Cl)cc(Cc2ccccc2OC(F)(F)F)c1C [Compound 247, N′-(5-chloro-2-methyl-3-(2-(trifluoromethoxy)benzyl)phenyl)-N-ethyl-N-methylformimidamide]
≥ 70%: inhibition of growth at 300 ppm (Pyricularia oryzae) | inhibition of growth at 300 ppm (Rhizoctonia solani) | inhibition of growth at 300 ppm (Botrytis cinerea) | inhibition of growth at 300 ppm (Alternaria solani)

CCN(C)C=Nc1cc(F)cc(Cc2ccc(Br)cc2)c1C [Compound 175, N′-(3-(4-bromobenzyl)-5-fluoro-2-methylphenyl)-N-ethyl-N-methylformimidamide]
≥ 70%: inhibition of growth at 300 ppm (Pyricularia oryzae) | inhibition of growth at 300 ppm (Rhizoctonia solani) | inhibition of growth at 300 ppm (Botrytis cinerea) | inhibition of growth at 300 ppm (Alternaria solani)

CCN(C)C=Nc1cc(C)cc(N(C)c2ccc(F)cc2)c1Cl [Compound 69, N′-(2-chloro-3-((4-fluorophenyl)(methyl)amino)-5-methylphenyl)-N-ethyl-N-methylformimidamide]
≥ 70%: inhibition of growth at 300 ppm (Pyricularia oryzae) | inhibition of growth at 300 ppm (Rhizoctonia solani) | inhibition of growth at 300 ppm (Alternaria solani) | pest or weed control at 500 ppm (Phakopsora pachyrhizi)

CCN(C)C=Nc1cc(F)cc(Cc2cccc(C#N)c2)c1C [Compound 174, N′-(3-(3-cyanobenzyl)-5-fluoro-2-methylphenyl)-N-ethyl-N-methylformimidamide]
≥ 70%: inhibition of growth at 300 ppm (Pyricularia oryzae) | inhibition of growth at 300 ppm (Rhizoctonia solani) | inhibition of growth at 300 ppm (Botrytis cinerea) | inhibition of growth at 300 ppm (Alternaria solani)

CCN(C)C=Nc1cc(F)cc(Cc2cccc(OC(F)(F)F)c2)c1C [Compound 173, N-ethyl-N′-(5-fluoro-2-methyl-3-(3-(trifluoromethoxy)benzyl)phenyl)-N-methylformimidamide]
≥ 70%: inhibition of growth at 300 ppm (Pyricularia oryzae) | inhibition of growth at 300 ppm (Rhizoctonia solani) | inhibition of growth at 300 ppm (Botrytis cinerea) | inhibition of growth at 300 ppm (Alternaria solani)

CCN(C)C=Nc1cc(F)cc(N(C)c2ccc(F)c(F)c2)c1C [Compound 83, N′-(3-((3,4-difluorophenyl)(methyl)amino)-5-fluoro-2-methylphenyl)-N-ethyl-N-methylformimidamide]
≥ 70%: inhibition of growth at 300 ppm (Pyricularia oryzae) | inhibition of growth at 300 ppm (Rhizoctonia solani) | inhibition of growth at 300 ppm (Botrytis cinerea) | inhibition of growth at 300 ppm (Alternaria solani)

CCN(C)C=Nc1cc(C)cc(N(C)c2cccc(C(C)C)c2)c1Cl [Compound 63, N′-(2-chloro-3-((3-isopropylphenyl)(methyl)amino)-5-methylphenyl)-N-ethyl-N-methylformimidamide]
≥ 70%: inhibition of growth at 300 ppm (Botrytis cinerea) | inhibition of growth at 300 ppm (Alternaria solani)

CCN(C)C=Nc1cc(F)cc(Cc2ccc(F)c(C(F)(F)F)c2)c1C [Compound 234, N-ethyl-N′-(5-fluoro-3-(4-fluoro-3-(trifluoromethyl)benzyl)-2-methylphenyl)-N-methylformimidamide]
≥ 70%: inhibition of growth at 300 ppm (Pyricularia oryzae) | inhibition of growth at 300 ppm (Rhizoctonia solani) | inhibition of growth at 300 ppm (Alternaria solani) | pest or weed control at 500 ppm (Phakopsora pachyrhizi)

CCN(C)C=Nc1cc(C)cc(N(C)c2cc(Cl)ccc2C)c1Cl [Compound 110, N′-(2-chloro-3-((5-chloro-2-methylphenyl)(methyl)amino)-5-methylphenyl)-N-ethyl-N-methylformimidamide]
≥ 70%: inhibition of growth at 300 ppm (Botrytis cinerea) | inhibition of growth at 300 ppm (Alternaria solani)

CCN(C)C=Nc1cc(F)cc(Nc2cccc(C)c2F)c1C [Compound 122, N-ethyl-N′-(5-fluoro-3-((2-fluoro-3-methylphenyl)amino)-2-methylphenyl)-N-methylformimidamide]
≥ 70%: inhibition of growth at 300 ppm (Pyricularia oryzae) | inhibition of growth at 300 ppm (Botrytis cinerea) | pest or weed control at 500 ppm (Phakopsora pachyrhizi)

CCc1cccc(N(C)c2cc(Cl)cc(N=CN(C)CC)c2C)n1 [Compound 253, N′-(5-chloro-3-((6-ethylpyridin-2-yl)(methyl)amino)-2-methylphenyl)-N-ethyl-N-methylformimidamide]
≥ 70%: inhibition of growth at 300 ppm (Pyricularia oryzae) | inhibition of growth at 300 ppm (Rhizoctonia solani) | inhibition of growth at 300 ppm (Alternaria solani) | pest or weed control at 500 ppm (Phakopsora pachyrhizi)
